Test results from patent US8298781B2, “Compositions and methods for characterizing and regulating olfactory sensation” (Duke University, priority 2007, dated 2012).

How the values were obtained:
[1] = biological target: T1, OR7D4 P79L (Homo sapiens, UniProt Q8NG98, P79L); experiment: Luciferase assay dose response, OR7D4 P79L; format: cell-based; conditions: all concentrations tested
T1 construct: expressed in transfected cells; host or cells: Hana3A (HEK293T-derived)
T1 sequence (Q8NG98 1-312 P79L): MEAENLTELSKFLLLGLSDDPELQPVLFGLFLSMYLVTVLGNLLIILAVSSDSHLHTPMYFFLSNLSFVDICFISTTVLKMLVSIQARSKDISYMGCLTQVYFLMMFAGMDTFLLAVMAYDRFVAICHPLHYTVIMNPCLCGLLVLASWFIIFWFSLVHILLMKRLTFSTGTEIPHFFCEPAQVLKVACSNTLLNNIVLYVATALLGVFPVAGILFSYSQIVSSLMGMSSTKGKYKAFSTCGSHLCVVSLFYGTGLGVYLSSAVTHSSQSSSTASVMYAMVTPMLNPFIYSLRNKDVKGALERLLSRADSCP
From the text: Heterologous expression of human odorant receptors. 423 human odorant receptors including 337 predicted functional receptors were cloned. Odorant receptors that contained the first 20 amino acid of human rhodopsin (see, e.g., Krautwurst, D., et al., Cell 95, 917-926 (1998); herein incorporated by reference in its entirety) in pCl (Promega) were expressed in the Hana3A cell line along with a short form of mRTP1, RTP1S, (M37 to the C-terminal end), which enhanced functional expression of the odorant receptors. For immunocytochemistry, cells were fixed, permeabilized and incubated with monoclonal anti-rhodopsin antibody, 4D2 (see, e.g., Laird, D. W., et al., Invest Opthalmol Vis Sci 29.419428 (1988); herein incorporated by reference in its entirety), followed by Cy3-conjugated donkey anti-mouse IgG (Jackson Immunologicals). […]
Luciferase assay and data analysis. […] Luminescence was measured using Wallac Victor 1420 (Perkin-Elmer). Normalized luciferase activity was calculated by the formula [luc(N)-luc(lowest)]/luc(highest)/RL (N) where luc(N)=luminescence of luciferase of a certain well; luc(lowest)=lowest luminescence of luciferase of a plate or a set of plates; luc(highest)=highest luminescence of luciferase of a plate or a set of plates; RL(N)=luminescence of Renilla luciferase of a certain well. Data was analyzed with Microsoft Excel and GraphPad Prism 4.

[2] = system: humans; conditions: literature; cited from earlier work

SMILES	dose-response function of OR7D4 P79L in vitro [1]	humans fitting the criteria of specific anosmia [2] [%]	humans with reduced sensitivity [2]
C[C@@]12C=CC[C@H]1[C@@H]1CCC3=CC(=O)CC[C@]3(C)[C@H]1CC2 [androstadienone, androsta-4,16-dien-3-one]	severely impaired function	–	–
C[C@]12CCC(=O)C[C@@H]1CC[C@@H]1[C@@H]2CC[C@]2(C)C=CC[C@@H]12 [androstenone, 5α-androst-16-en-3-one]	severely impaired function	6	Up to 30%
